Laboratory results from EPA's ToxValDB 9.5 (doi:10.2903/j.efsa.2010.1653).

What was measured:
[1] = tested on: Typhlodromus pyri; experiment: LR50; higher = less toxic; settings: acute; duration: 7 days; mortality
[2] = tested on: Rattus norvegicus
[3] = tested on: Oryctolagus sp.; settings: developmental; development
[4] = tested on: Canidae; settings: chronic; duration: 1 years; oral; Dog Other; body weight
[5] = tested on: Bibionidae; settings: chronic/long-term; duration: 28 days; development
[6] = tested on: Daphnia magna; settings: chronic/long-term; duration: 21 days; reproduction
[7] = tested on: Coturnix japonica; settings: acute; oral; mortality
[8] = tested on: Apis mellifera; settings: acute; duration: 48 hours; oral; unspecified; mortality
[9] = tested on: Tagia sp.; settings: acute; duration: 14 days; mortality
[10] = tested on: Oncorhynchus mykiss
[11] = tested on: Colinus virginianus
[12] = tested on: Typhlodromus pyri; settings: chronic/long-term; duration: 14 days; reproduction
[13] = reproduction developmental, reproduction

## Cc1cc(=O)[nH]o1 [Hymexazol]
[1]
  LR50: 1110 g/ha
[2]; acute, oral, mortality
  LD50: 1390 mg/kg
[2]; [13]
  NOEL: 37 mg/kg-day
[3]
  NOAEL: 50 mg/kg-day
[4]
  NOAEL: 17 mg/kg-day
[5]
  NOEC: 1.6 mg/L
[6]
  NOEC: 0.8 mg/L
[7]
  LD50: > 1080 mg/kg
[8]
  LD50: > 100 µg/piece
[9]
  LC50: 282 mg/kg
[10]; acute, duration: 96 hours, mortality
  LC50: > 100 µg/mL
[10]; chronic/long-term, duration: 28 days, body weight
  NOEC: > 100 mg/L
[11]; acute, oral, diet, mortality
  LC50: > 1470 mg/kg-day
[11]; [13]
  NOEC: 86.5 mg/kg-day
[12]
  NOEC: 400 g/ha
